In patent publication US6444669B1, “8,8A-DIHYDROINDENO[1,2-D]THIAZOLE DERIVATIVES WHICH CARRY IN THE 2-POSITION A SUBSTITUENT HAVING A SULFONAMIDE STRUCTURE OR SULFONE STRUCTURE; PROCESSES FOR THEIR PREPARATION AND THEIR USE AS MEDICAMENTS” (Aventis Pharma Deutschland GmbH, priority 2000, dated 2002):

What was measured:
male or female NMRI mice = test: Anorectic action: cumulated evaporated milk consumption after 24 h feed withdrawal; type: in vivo
Experimental: The anorectic action was tested on male or female NMRI mice. After withdrawal of feed for 24 hours, the test preparation was administered via a stomach tube. Kept individually and with free access to drinking water, the animals were offered evaporated milk 30 minutes after the administration of the preparation. The consumption of evaporated milk was determined half-hourly for 3 hours and the general condition of the animals was observed. The measured milk consumption was compared with that of untreated control animals.

## NS(=O)(=O)c1ccc(C2=NC3(O)c4ccc(Cl)cc4CC3S2)cc1 (stereo not drawn) [Example 5, 4-(6-Chloro-3a-hydroxy-8,8a-dihydro-3aH-indeno[1,2-d]thiazol-2-yl)benzenesulfonamide]
Male or female NMRI mice; male animals, oral dose 50 mg/kg, compared with untreated control animals
  Reduction of the cumulated milk consumption in % of the control: 95%
Male or female NMRI mice; oral dose 50 mg/kg via stomach tube, N=5, milk consumption determined half-hourly for 3 hours
  cumulated milk consumption of the treated animals: 5/0.08 ml
other
  melting point: 160 °C
